{"source": "patent US8507674B2", "about": "“Quorum sensing inhibitor” (The University of Tokyo, priority 2007, dated 2013)", "key": {"Burkholderia glumae [1]": {"tested_on": "Burkholderia glumae", "experiment": "Test Example 9: amount of toxoflavin produced in culture solution, with comparative compound", "type": "cell-based", "conditions": "0, 20, 40, 60, 80 or 100 μM, shake culturing 20 hours, FIG. 6", "procedure": "Burkholderia glumae was inoculated into an LB culture medium (produced by BD (Difco LB Broth: containing tryptone (10.0 g), yeast extract (5.0 g), and sodium chloride (10.0 g)), and cultured at 37° C. overnight. The thus-obtained culture solution was subjected to bacterial collection using a centrifuge, and washed with an LB culture medium twice using a fresh LB culture medium each time. To the bacterial cell a fresh LB culture medium was added, and then Compound (1) produced in Production Example 1 was added thereto in such a manner that its final concentration became a predetermined value (i.e., 0, 20, 40, 60, 80 or 100 μM), followed by shake culturing for 20 hours. The amount of toxoflavin produced by the bacterial cell in the culture solution was obtained by the following procedure.\nEach culture solution was filtered by a 0.22-μm membrane filter, and 1 mL of the filtrate was isolated. One mL of chloroform was added to the filtrate, followed by extraction. The thus-obtained chloroform layer was concentrated under reduced pressure, and an 80% (V/V) an aqueous methanol solution was added to and dissolved in the residue. The absorbance (at 260 nm) of the solution was measured, and the toxin doses were calculated from the calibration curve, which was obtained using chemically synthesized standard toxin. […]"}, "Burkholderia glumae [2]": {"tested_on": "Burkholderia glumae", "experiment": "Test Example 1: production of QS signal molecules C6-HSL and C8-HSL (TLC, CV026 violacein detection)", "type": "cell-based", "procedure": "Burkholderia glumae was inoculated into an LB culture medium (produced by BD) (Difco LB Broth: containing tryptone (10.0 g), yeast extract (5.0 g), and sodium chloride (10.0 g)), and cultured at 37° C. overnight. The thus-cultured broth was subjected to bacterial collection using a centrifuge, washed with an LB culture medium twice using a fresh LB culture medium each time. […] Each of the broths was filtered by a membrane filter (0.22 μm). 0.5 mL of ethyl acetate was added to 0.5 mL of supernate from which bacteria were removed, and then the quorum sensing (QS) signal molecules were extracted using ethyl acetate. The thus-obtained ethyl acetate layer was concentrated under reduced pressure, and the residue was re-dissolved in 20 μL of methanol, producing a test liquid.\nThe test liquid (1 μL) was spotted on TLC to separate C6-HSL and C8-HSL, which are QS signal molecules, under the condition of developing solvent: methanol/water=70/30. After the development, a TLC plate was well dried and a culture solution containing QS signal molecule detection bacteria (Chromobacterium violaceum CV026 strain) that had been pre-cultured in an LB culture medium and agar was applied to the TLC plate, followed by the detection of C6-HSL and C8-HSL. Chromobacterium violaceum is known as a bacterium that produces purple pigment (violacein) using the QS; therefore, the CV026 strain can be used to detect QS signal molecules (Microbiology, (1997), 143, 3703-3711, (2004), 54(4), 921-934, (2007), 64(1), 165-179). After applying the detected bacteria to the TLC plate, the TLC plate was subjected to overnight cultivation at 28° C. and then detection using violacein. For quantitative determination, calibration curves showing the violacein production from C6-HSL and C8-HSL that had been chemically synthesized were obtained. From the calibration curves, the production amounts of the QS signal molecules of each compound were obtained."}, "[3]": {"conditions": "40 μM compound, 12 hours shake culturing"}, "[4]": {"conditions": "40 μM compound, 24 hours shake culturing"}, "[5]": {"conditions": "60 μM compound, 12 hours shake culturing"}, "[6]": {"conditions": "60 μM compound, 24 hours shake culturing"}}}
{"smiles": "CCCc1cc(=O)n2cccc(O)c2n1", "note": "[Compound (1), 2-n-propyl-9-hydroxy-4H-pyrid[1,2-a]pyrimidin-4-one]", "values": [{"measurement": "toxin doses produced by bacteria (toxoflavin)", "setting": "Burkholderia glumae [1]", "value": "remarkably decreased"}, {"measurement": "C6-HSL", "setting": "Burkholderia glumae [2]; [3]", "value": 163, "unit": "ng/mL"}, {"measurement": "C8-HSL", "setting": "Burkholderia glumae [2]; [3]", "value": 14, "unit": "µg/mL"}, {"measurement": "C6-HSL", "setting": "Burkholderia glumae [2]; [4]", "value": 0, "unit": "ng/mL"}, {"measurement": "C8-HSL", "setting": "Burkholderia glumae [2]; [4]", "value": 0, "unit": "µg/mL"}, {"measurement": "C6-HSL", "setting": "Burkholderia glumae [2]; [5]", "value": 167, "unit": "ng/mL"}, {"measurement": "C8-HSL", "setting": "Burkholderia glumae [2]; [5]", "value": 13, "unit": "µg/mL"}, {"measurement": "C6-HSL", "setting": "Burkholderia glumae [2]; [6]", "value": 0, "unit": "ng/mL"}, {"measurement": "C8-HSL", "setting": "Burkholderia glumae [2]; [6]", "value": 0, "unit": "µg/mL"}]}
